Assay results reported in patent US5519115A, “Reverse antimicrobial peptides” (priority 1993, dated 1996).
Read-outs that look alike come from different tables or passages of the source. Ends that are not written are not given here.

Key:
isolated chloroplasts = assay: Oxygen evolution bioassay, phytotoxicity (isolated chloroplasts); type: cell-based, Spinach (Spinacia oleracea L. var. Melody); conditions: for inhibition of oxygen evolution: 8 uM
Procedure: The following procedure for the preparation of chloroplasts to use in an oxygen electrode is similar to that of Gupta et al., "Development and Use of Chlorotetracycline Fluorescence as a Measurement Assay of Chloroplast Envelope-Bound Mg^2+, "Plant Physiol. 89, (1989) 753-761. Spinach (Spinacia oleracea L. var. `Melody`) was grown in 1:1 peat/vermiculite potting mix in a growth chamber with a 10 hour light period. The chamber temperature was maintained at 21° C. (day) and 16° C. (night) during the growth period. All plants were used for chloroplast isolation after 6-8 weeks of growth.
In order to obtain an enriched chloroplast fraction, about 12 g of deribbed spinach leaves were thoroughly washed and surface dried. The leaves were then cut into small pieces, each about 1/2 inch square, and were placed in a small blender jar containing 50 mL of chilled homogenization medium (0.33M sorbitol, 50 mM Hepes-NaOH, pH 6.8, 2mM Na2 EDTA, 1 mM MnCl2, 1 mM MgCl2). The tissue was blended twice for three second intervals on high speed in a blender. The resulting homogenate was filtered through four layers of cheesecloth and two layers of miracloth (Behring Diagnostics, La Jolla, Calif.) into two chilled 30 mL glass centrifuge tubes. The filtered solution was centrifuged for 1.0 minute at 750 g (2,200 RPM) in a JS 13.1 swinging bucket rotor in a Beckman J2-21M centrifuge (Beckman Instruments, Inc., Somerset, N.J.). The supernatant was then decanted and the pellet was gently resuspended by swirling at 0° C. About 15 mL of homogenization medium was added to each tube of chloroplasts before the chloroplasts were layered onto a 40% Percoll gradient (6 mL Percoll, 9 mL homogenization medium, and 0.03 g bovine serum albumin) in a 30 mL glass centrifuge tube. These tubes were centrifuged for 4.0 minutes at 2500 g (4000 RPM) in a JS 13.1 swinging bucket rotor in a Beckman J2-21M centrifuge. The supernatant was removed and the resulting pellet was resuspended in a small amount of homogenization medium (about 500 microliters).
Plastid concentration was generally expressed on a chlorophyll basis. Chlorophyll was determined by the method of Arnon "Copper Enzymes in Isolated Chloroplasts, Polyphenol Oxidase in Beta Vulgaris," Plant Physiol. 24, (1949) 1-15. About 50 microliters of chloroplast stock suspension was added to 10 mL of 80% acetone and this solution was incubated 5.0 minutes in the dark and then centrifuged for 5.0 minutes at 500 g (1630 RPM) in a Beckman GP centrifuge. The absorbance of the acetone-chloroplast solution was monitored at 645 nm, at 663 nm and at 730 nm. The chlorophyll concentration was then calculated as 10× [(absorbance at 645 nm×20.2)+(absorbance at 663 nm×8.02)--background at 730 nm]. This gave the amount of chlorophyll in micrograms for the original 50 microliters of chloroplasts. The concentration of chloroplasts was then adjusted with homogenization medium so that 50 microliters of suspension contained 26 micrograms of chlorophyll. These chloroplasts were only active for 11/2 to 2 hours and were therefore used immediately.
An oxygen electrode (Hansatech Instruments Ltd., Kings Lynn, Norfolk, England) was used to measure oxygen evolution from isolated chloroplasts. For a detailed discussion of the method see, D. Walker, "The Use of the Oxygen Electrode and Fluorescence Probes in Simple Measurements of Photosynthesis," supra. A saturated KCl solution was placed in the electrode well and a one-inch square of rolling paper or lens paper was placed in to the electrode well so that it soaked up KCl and formed an ionic bridge. A one-inch square of teflon membrane was then prepared, being careful not to touch its surface, and was placed over the soaked paper. Using the membrane applicator, an O ring was placed over the head of the electrode, thereby securing paper and membrane across the electrode. The CB-1D control box was turned on and the system was allowed to warm up approximately one hour before calibration. […]

plant protease [1] = conditions: cited from earlier work
[2] = tested on: maize BMS suspension cells; assay: Whole cell phytotoxicity screening (oxygen consumption); type: cell-based
Procedure: Oxygen consumed by maize BMS suspension cells were determined as an indication of the relative phytotoxicity of antimicrobial peptides. Black Mexican Sweet (BMS) cell suspension cultures were maintained by transferring 25 mls of cell culture to 25 mls of fresh MSA2D media (4.4 g bottle of Murashige and Skoog basal salt mixture Sigma catalog No. M5524, 100 mg myoinositol, 150 mg L-asparagine, 30 g sucrose, 20 mls of 0.1 mg/ml 2.4-dichlorophenoxy acetic acid stock and 1 ml of vitamin stock consisting of 25 mg/100 ml calcium pantothenate, 50 mg/100 ml pyridoxine, 50 mg/100 ml nicotinic acid, 50 mg/100 ml thiamine, 200 mg/100 ml glycine all added to 1 liter sterile distilled water followed by autoclaving 25 minutes at 121° C.) in a capped sterile 250 ml Erlenmeyer flask 3 days after culture initiation. Four days later 12.5 mls of the cell culture was transferred to 35.5 mls of fresh MSA2D media. Cultures were continuously maintained by alternating 3 and 4 day transfer regimes. The cultures were shaken in low light at 125 RPM at room temperature. For oxygen consumption experiments cells were used one day after transferring to fresh media. Cells were poured into a sterile 50 ml centrifuge tube and allowed to settle by gravity. Spent media was drawn off and 7.8 mls of fresh MSA2D media was added per gram of settled cells. The cell stock solution was placed on a shaker for continued aeration and was used in all assays conducted on that day.
An oxygen electrode (Hansatech Limited, Kings' Lynn, Norfolk, England) was inspected to insure that no corrosion was present. A saturated KCl solution was then placed in the clean electrode well. A 1 inch square of rolling paper or lens paper was cut and placed over the well so that the edges of the paper soaked up KCl and formed an ionic bridge. A 1 inch square of teflon membrane was cut, being careful not to touch the surface, and placed over the soaked rolling paper. A membrane applicator was used to press an O-ring over the head of the electrode thereby securing paper and membrane across the electrode. The CB-1D control box (Hansatech Limited) was turned on and allowed to warm up approximately one hour before calibration. The CB-1D control box was set at 1X output. A chart recorder was set at 0.05 V input with a chart speed of 3 cm/min. A circulating water bath set at 20° C. was hooked up to the electrode chamber. The entire system was calibrated using air-saturated water obtained by vigorously shaking a wash bottle of distilled water. Using the gain switch, the output was set so that the pen on the chart recorder was at the maximum chart height (900=top). The oxygen concentration of air-saturated water was assumed to be 276 nmole/mL at 20° C. All air was removed from the water in the cuvette by adding 2-3 mg of sodium dithionite. The pen on the chart recorder responded by moving to the bottom of the graph. If the slope of the line was unstable, the membrane and rolling paper were removed and the set-up steps were repeated.
For a 1 mL assay, 888 uL water and 62.5 uL BMS stock cell suspension were added to the oxygen electrode cuvette. The final concentration of cells used in the assay was approximately 8 mg/mL. The rate of oxygen consumed by the cells was monitored on the chart recorder for 3 minutes. Fifty microliters of peptide was then added to the cuvette using a Hamilton syringe. (Peptide stocks were adjusted to deliver the desired concentration in a 50 uL volume). Oxygen consumption was monitored for 5 minutes after peptide addition. The time period for the complete test was 8 minutes.
The rate of suppression of oxygen consumption after the addition of a peptide was determined by comparing the slope of the line before the addition of the peptide to the slope of the line at a set time point after addition of the peptide. The rate of oxygen consumption after addition of the peptide was divided by the initial control rate of oxygen consumption and then multiplied by 100. […]

plant protease [3] = tested on: plant protease
[4] = Phytotoxicity (method not given)
[5] = tested on: extracellular plant proteases; assay: in vitro; conditions: pH 7.4
Source text: In an attempt to determine the sensitivity of peptides to extracellular plant proteases, and to determine the site or sites of processing by these proteases, a system was designed to obtain extracellular fluid from leaves of maize, tobacco, or potato and to use these to test the stability of various peptides.
Extracellular fluid (ECF) was obtained by cutting interveinal pieces from tobacco leaf after they were rinsed in deionized water. The segments were submerged in water in a vacuum desicator and vacuum was applied for 5 to 10 min. The vacuum was released slowly, the leaves were blotted dry and 4 to 5 pieces were rolled and placed in a 50 mL disposable syringe barrel cut down so as to be able to fit in a swinging bucket centrigue rotor. The syringe barrel was placed in a 50 mL screw cap conical centrifuge tube and centrifuged in a swinging bucket rotor at 600×g for 30 min. The liquid was recovered and centrifuged in a microfuge for 10 min. The supernatant was stored at -80° C. and used in subsequent experiments.
To test the stability of a peptide to extracellular plant proteases, 10 ug of the peptide (1 mg/mL) was incubated with 10% extracellular fluid in 50 mM Tris HCL buffer, pH 7.4. The peptides tested were prepared or obtained as described in Examples 6, 13, and 14. After incubation at 37° C. for 0, 15, 30, 45 and 60 min the proteases were inactivated by the addition of trifluoroacetic acid (TFA) to 1% final concentration (v/v).
Peptides were analyzed by reverse phase chromatography on a 2.1×30 mm POROS R/H column (PerSpective Biosystems, Cambridge, Mass.) using a 5 to 35% acetonitrile gradient in 0.1% TFA on a Hewlett-Packard HP1090 high pressure liquid chromatograph (Hewlett Packard, Avondale, Pa.) at 3.5 mL/min.

[6] = 10% extracellular fluid from tobacco leaf

Substance: CGIGKFLREAGKFGKAFVGEIMKP [Peptide No. 13, Cys [Arg 7, Glu 8, Pro 23] Mag 1]
- inhibition of oxygen evolution (isolated chloroplasts): 100%

Substance: GIGKFLHEAKKFGKAFVGEIMNS [Peptide No. 10, [Glu 8] Mag 2]
- decrease in the susceptibility to proteolytic degradation (plant protease [1]): ≥ 50%

Substance: GIGKFLHSAGKFGKAFVGEIMKS [Peptide No. 2, Magainin 1]
- Percent Inhibition of Oxygen Consumption Caused by Addition of 4 μM Peptide [2]: 52 +/- 6%
- phytotoxic effect on whole cells, oxygen consumption (in words) [2]: greater overall phytotoxic effect on whole cells

Substance: SWLSKTAKKLENSAKKRISEGIAIAIQGGPR [Peptide No. 4, P1]
- susceptibility to proteolysis (in words) (plant protease [3]): very low
- phytotoxic effect on whole cells, oxygen consumption (in words) ([2]; Table V): greater overall phytotoxic effect on whole cells
- phytotoxicity (in words) [4]: very low

Substance: KWKLFKKIEKVGQNIRDGIIKAGPAVAVVGQATQIAK-NH2 [Peptide No. 3, Cecropin A-NH2, reference compound]
- inhibition of oxygen evolution (isolated chloroplasts): 100%

Substance: GIGKFLHSAKKFGKAFVGEIMNSGIGKFLHSAKKFGKAFVGEIMNS [Peptide No. 5, (Mag 2)-(Mag 2)]
- Percent Inhibition of Oxygen Consumption Caused by Addition of 4 μM Peptide [2]: 72 +/- 13%
- phytotoxic effect on whole cells, oxygen consumption (in words) [2]: no significantly different effect on phytotoxicity
- inhibition of oxygen evolution (isolated chloroplasts): 100%

Substance: MGIGKFLREAGKFGKAFVGEIMKGIGKFLREAGKFGKAFVGEIMKP [Peptide No. 15, Head-to-tail peptide Nos. 11 and 12***]
- inhibition of oxygen evolution (isolated chloroplasts): 100%

Substance: SNMIEGVFAKGFKKASHLFKGIG [Peptide No. 8, Reverse Magainin 2]
- Percent Inhibition of Oxygen Consumption Caused by Addition of 4 μM Peptide [2]: 16 +/- 12%
- phytotoxicity effect compared to native Magainin 2 (in words) (isolated chloroplasts): extremely low Phytotoxicity effect

Substance: GIGKFLHSAKKFGKAFVGEIMNSGGGGGGIGKFLHSAKKFGKAFVGEIMNS [Peptide No. 6, Mag 2 dimer (bridged)]
- inhibition of oxygen evolution (isolated chloroplasts): 100%

Substance: GIGKFLHSAKKFGKAFVGEIMNS [Peptide No. 1, Magainin 2]
- remaining at 0.25 h [5, 6]: 23%
- remaining at 0.5 h [5, 6]: 18%
- remaining at 0.75 h [5, 6]: 5.3%
- remaining at 1 h [5, 6]: 0.5%
- Percentage of Area Under the Parent Peak ([5]; Time 0 min, 10% extracellular fluid, 37° C.): 100 Percentage
- phytotoxic effect on whole cells, oxygen consumption (in words) ([2]; Table V): much higher level of inhibition of oxygen consumption
